Where two headings read alike, the source gives them in different places.
Tests used:
[1] = tested on: HCV genotype 1b; test: HCV 1b replicon luciferase assay; type: cell-based; conditions: Table 1, Huh7 HCV 1b replicon, luciferase reporter, 48 hours, read-out: 1b EC50
Method in brief: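 Huh7 cells carrying a genotype 1b replicon with stable luciferase reporter, 10k cells/well, were treated 48 h at 37 °C with 10-point 5-fold dilutions from 25 μM (0.1% DMSO), in duplicate. Replication was read as Steady-Glo luminescence.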

[2] = Caco-2 permeability testing; type: in vitro ADME, human; conditions: human, 90 min; for Papp A→B at 90 min, 10 µM: read-out: Permeability (second figure of Efflux/permeability), Papp (A-B); for Papp B→A at 90 min, 10 µM: read-out: Efflux (first figure of Efflux/permeability), Papp (B-A)
Text: Intestinal epithelium permeability is a critical characteristic that determines the rate and extent of human absorption and affects bioavailability of a drug candidate. Poor intestinal permeability leads to limited absorption. Generally, higher absorption is preferred. The Caco-2 cell line is a human colon adeno-carcinoma cell line that resembles the epithelial lining of the human small intestine. Several transport proteins that are expressed in human intestinal epithelium are also expressed in the Caco-2 cell model. Some transporter proteins are efflux systems which mediate the secretion of compounds from inside the cell back to the apical lumen (representative of the intestinal lumen), limiting overall absorption. In a permeability assay, the apparent permeability coefficient is measured between the apical to basolateral sides of a cell monolayer, Papp (A-B), and the basolateral to the apical side, Papp (B-A). Papp (A-B)<2×10^−6 cm/s is predictive of low permeability to the basolateral side, 2×10^−6 cm/s<Papp (A-B)<20×10^−6 cm/s is predictive of medium permeability, and Papp (A-B)>20×10^−6 cm/s is predictive of high permeability. In the B-A permeability assay, Papp (B-A) is measured and compounds evaluated for efflux potential. Together, these assay results are reported as a ratio of Papp (B-A) to Papp (A-B). Papp (B-A)/Papp (A-B)>3 are likely to be transported by one of the efflux systems, and have poor absorption. Papp (B-A)/Papp (A-B)<3 are likely to show reasonable intestinal absorption. An in vitro drug absorption assay suitable for use in predicting intestinal absorption of the compounds useful in the methods of the invention is described in this example. The embodiments of this assay described in this example were developed by Shanghai ChemPartner Co., Ltd., a corporation of China with its principal office located at 720 Cailun Road, Building No. 3, Shanghai 201203, China.
Caco-2 (ATCC, catalog No. HTB-37™) cells are cultured in growth medium (MEM+10% FBS+1% NEAA). The growth medium is prepared by adding 50 mL FBS and 5 mL NEAA to 445 mL of MEM or by adjusting the final volume according to actual needs. Trypsin-EDTA (Invitrogen, Cat #25200-072) is also used.
Hanks Balanced Salt Solution (HBSS, Invitrogen, Cat #14025-092) with 25 mM HEPES, pH 7.4, HBSS buffer with 0.2% DMSO (50 μL DMSO into 25 ml HBSS buffer), and HBSS buffer with 0.4% DMSO (100 μL DMSO into 25 ml HBSS buffer) are used.
10 mM stock solutions of a compound is prepared in DMSO and Lucifer Yellow in assay buffer using the formula (Actual Weight/Molecular Weight)/mL solvent=10 mM. Erythromycin, Metoprolol, and Atenolol are used as reference compounds. Donor solutions (10 μM for compounds and 5 μM for Lucifer Yellow) are prepared. For A-B, 4 μL of 10 mM compound stock solution and 2 μL of 10 mM Lucifer Yellow stock solution are loaded into 4 mL of HBSS buffer, and centrifuged (5 min, 4000 rpm) to precipitate undissolved particles. Supernatants are collected for compound dosing. For B-A, 4 μL (compounds) of 10 mM compound stock solution is added to 4 mL HBSS buffer with 0.2% DMSO, and centrifuged (5 min, 4000 rpm) to precipitate undissolved particles. Supernatants are collected for compound dosing.
Receiver solutions are prepared. For A-B, the solution is HBSS buffer with 0.4% DMSO. For B-A, 2 μL of 10 mM Lucifer Yellow stock solution is added to 4 mL of HBSS buffer with 0.2% DMSO. Compound solutions are prepared for standard curve (3 μM/1 μM/0.2 μM/0.04 μM/0.01 μM/0.005 μM):
1× solution: 3 μL of 20× solution (0.1-60 μM)+57 μL 0.4% DMSO HBSS+60 μL acetonitrile (ACN) with internal standard (IS, 200 ng/mL Osalmid). The assay was performed as described below
Stock cultures are maintained in MEM+10% FBS+1% NEAA, grown in 75 cm^2 tissue culture treated flasks and split (passed) 2 times weekly to maintain desired confluence. For maintenance passage, trypsinized cells are routinely distributed into new flasks at a standard passage ratio of 1:4. […]

[3] = Liver microsome stability, human; type: in vitro ADME
Text: (§1) Metabolic stability assays are designed to measure the stability of a test compound in a variety of assay matrices from human and animal species. From a metabolism perspective, a drug would be relatively stable, have a small first-pass effect, and maintain an effective concentration in blood for a reasonable period of time. A microsomal preparation from the liver contains all CYP isozymes and other membrane-bound drug metabolizing enzymes which are responsible for the metabolism for the majority of drugs in humans. Metabolic stability in liver microsomes can determine half-life (T1/2) and intrinsic clearance (Clint). The determination of Clint may be useful to determine whether metabolism is the major elimination pathway when it is compared to total body clearance in vivo. For high metabolic stability in liver microsomes: […] Human, Sprague Dawley rat, and CD-1 mouse liver microsome samples were purchased from BD Gentest. An in vitro metabolic stability assay suitable for use in predicting first pass metabolism of the compounds useful in the methods of the invention is described in this example. […] 6 mM NADPH in 0.1 M K-phosphate buffer is prepared by dissolving 25.1 mg of NADPH tetrasodium salt in 5 mL of K-phosphate buffer. […] The plate is pre-incubated at 37° C. for 10 minutes. 15 μL of NADPH stock solution (6 mM) is added to the wells designated for Time 60 and timed. At 30 min, 15 min, and 5 min, 15 μL of NADPH stock solution (6 mM) is added to the wells. At the end of incubation, 135 μL of ACN containing IS is added to all the wells (60 min, 30 min, 15 min, 5 min and 0 min). Then 15 μL of NADPH stock solution (6 mM) is added to the wells designated as Time 0.

[4] = Liver microsome stability, rat; type: in vitro ADME, Sprague Dawley rat
Text: as §1

[5] = Liver microsome stability, mouse; type: in vitro ADME, CD-1 mouse
Text: as §1

Compound | EC50 ([1]; Hepatitis C virus, Huh-7, 48 h) [nM] | Papp A→B at 90 min, 10 µM ([2]; Caco-2, pH 7.4, Caco-2, A-B) [×10⁻⁶ cm/s] | Papp B→A at 90 min, 10 µM ([2]; Caco-2, pH 7.4, Caco-2, B-A) [×10⁻⁶ cm/s] | also measured
Cc1ccc(C(=O)Nc2nn(C)c3nc(N4CCCCCC4)ccc23)s1 [compound 841] | 1600 | 9.7 | 1.9 | 
O=C(NC1CCNCC1)c1nn(Cc2ccccc2Cl)c2nc(N3CCCCCC3)ccc12 [compound 853] | 2900 |  |  | Papp A→B at 90 min, 10 µM ([2]; pH 7.4, Caco-2, A-B): 0.4 ×10⁻⁶ cm/s; Papp B→A at 90 min, 10 µM ([2]; pH 7.4, Caco-2, B-A): 0.4 ×10⁻⁶ cm/s
Cn1nc(C(=O)NC2CCN(S(C)(=O)=O)CC2)c2ccc(N3CCCCCC3)nc21 [compound 1063] |  | 50 | 16 | EC50 [1]: 3900 nM
Cn1nc(C(=O)NC2CCN(CC3CCOCC3)CC2)c2ccc(N3CCCCCC3)nc21 [compound 1072] | 2500 | 5.4 | 4.6 | 
CCC(CC)Oc1ccc2c(C(=O)NC3CCN(CC4CCCCC4)CC3)nn(C)c2n1 [compound 1074] | 880 | 6.6 | 1.6 | 
COc1ccc(CN2CCC(NC(=O)c3nn(C)c4nc(N5CCCCCC5)ccc34)CC2)cc1 [compound 1116] |  | 0.5 | 0.3 | EC50 [1]: 1300 nM
Cn1nc(-c2cnc(C(=O)NCc3cccs3)s2)c2ccc(N3CCCCCC3)nc21 [compound 1129] | 830 | 6 | 4 | 
Cn1nc(C(=O)NCc2cccs2)c2cc(N3CCCCC3)cnc21 [compound 1146] | 7500 | 22 | 21 | 
Cn1nc(C(=O)NC2CCN(CC3CCCCC3)CC2)c2ccc(N3CCCCCCC3)cc21 [compound 1150] | 600 | 1.4 | 5.7 | 
Clc1ccc(Cn2nc(COCCN3CCCC3)c3ccc(N4CCCCCCC4)nc32)cc1 [compound 1203] | 3300 | 7.8 | 7.3 | 
CCN1CCC(NC(=O)c2nn(C)c3nc(N4CCCCCCC4)ccc23)CC1 [compound 1225] | 1200 | 6.4 | 3.2 | 
CN1CCC(NC(=O)c2nn(C)c3nc(N4CCCCCCC4)ccc23)CC1 [compound 1306] | 360 | 9.1 | 4.4 | 
CC(C)N1CCC(NC(=O)c2nn(C)c3nc(N4CCCCCCC4)ccc23)CC1 [compound 1307] | 1000 | 9.6 | 4.2 | 
CCCC(C)CN1CCC(NC(=O)c2nn(C)c3nc(N4CCCCCCC4)ccc23)CC1 (stereo not shown) [compound 1308] | 480 | 0.4 | 0.2 | 
Cn1nc(C(=O)NC2CCN(CCN3CCCCCC3)CC2)c2ccc(N3CCCCCCC3)nc21 [compound 1310] | 230 | 1.3 | 2.1 | 
CC1CCCCN1CCN1CCC(NC(=O)c2nn(C)c3nc(N4CCCCCC4)ccc23)CC1 (stereo not shown) [compound 1425] | 500 | 3 | 4 | 
CC1CCCN1CCCc1nn(C)c2nc(N3CCCCCCC3)ccc12 (stereo not shown) [compound 1452] | 1200 |  |  | human liver microsome (HLM, % parent remaining) ([3]; after 15 min): 32 % parent remaining; human liver microsome (HLM, % parent remaining) ([3]; after 30 min): 13 % parent remaining; human liver microsome (HLM, % parent remaining) ([3]; after 60 min): 3 % parent remaining; rat liver microsome (RLM), % parent remaining ([4]; after 15 min): 2 % parent remaining; rat liver microsome (RLM), % parent remaining ([4]; after 30 min): 0.8 % parent remaining; rat liver microsome (RLM), % parent remaining ([4]; after 60 min): 0.5 % parent remaining; mouse liver microsome (MLM), % parent remaining ([5]; after 15 min): 1.7 % parent remaining; mouse liver microsome (MLM), % parent remaining ([5]; after 30 min): 0.9 % parent remaining; mouse liver microsome (MLM), % parent remaining ([5]; after 60 min): 0.3 % parent remaining
Cn1nc(C(=O)NC2CCN(CCN3CCCC3)CC2)c2ccc(NC3CCCCCCC3)nc21 [compound 1469] | 250 | 0.9 | 2.9 | 
Cn1nc(C(=O)NC2CCN(CCN3CCOCC3)CC2)c2ccc(NC3CCCCCCC3)nc21 [compound 1471] | 870 | 10.9 | 9.6 | 
CCCN1CCC(NC(=O)c2nn(C)c3nc(NC4CCCCCCC4)ccc23)CC1 [compound 1475] | 830 | 5.9 | 6.3 | 
O=C(NC1CCN(CCN2CCCCC2)CC1)c1nn(CC(F)F)c2nc(N3CCCCCC3)ccc12 [compound 1488] | 640 | 3.3 | 3.5 | 
Cn1nc(C(=O)NC2CCN(CCN3CCC(CO)CC3)CC2)c2ccc(N3CCCCCC3)nc21 [compound 1560] | 860 | 2 | 13.1 | 
CC1CCC(C)N1CCN1CCC(NC(=O)c2nn(C)c3nc(N4CCCCCC4)ccc23)CC1 (stereo not shown) [compound 1562] | 1900 | 6.7 | 6.3 | 

Reference: patent US20120232062A1, “AZAINDAZOLES TO TREAT FLAVIVIRIDAE VIRUS INFECTION” (EIGER BIOPHARMACEUTICALS, INC., priority 2009, published 2012)
